Reference: patent US12357666B1, “Traditional Chinese herbal plant composition for improving symptoms of liver cancer patients and compatibility method thereof” (The First Hospital of China Medical University, priority 2024, dated 2025)

Tests used:
[1] = Organ index (lung, liver, heart, kidney) of tumor mice; assay type: in vivo, BALB/c nude mice; details: 28 d
From the text: (§1) Totally 90 male BALB/c nude mice aged 5 weeks and with body weight of 19-22 g were used.
(§2) A total of 80 BALB/c nude mice were randomly selected and injected subcutaneously with Hep G2 cell line (5×10^6 cells) in the right armpits.
After 28 d of continuous administration, the mice in each group were weighed and killed by cervical dissection. Tumors and organs (lung, liver, heart and kidney) of the mice in each group were removed under sterile conditions, and washed with physiological saline. After washing, the tumors and the organs were dried with filter paper, weighed to obtain mass and recorded, and the tumor inhibition rate and organ index were calculated. The tumor mass of the mice was the average value of the tumor mass of each group of mice. Tumor inhibition rate=(tumor mass of mice in the model group-tumor mass of mice in the test group)/tumor mass of mice in the model group×100%. Organ index (mg/g)=organ mass (mg)/body mass (g) of mice.

Hep G2 cell line = experiment: Anti-tumor effect on tumor mice (subcutaneous Hep G2 model): tumor mass and tumor inhibition rate; assay type: in vivo, BALB/c nude mice; details: 28 d
From the text: The effect example explored the anti-tumor effect of the herbal plant compositions of Embodiment 1 and Comparative Examples 1 to 3 on tumor mice, and a specific process is as follows.
as §1, §2
Dosing Criteria: the conventional gavage dose of mice was […]. Generally, it is also necessary to increase the dose of the original medicinal material of the herbal plant composition by 1 time and decrease the dose of the original medicinal material of the herbal plant composition by 1 time for gavage.
Low-dose Embodiment 1 Herbal Plant Composition Group: 10 mice, administered 5.27 g/kg Embodiment 1 herbal plant composition by gavage.
Medium-dose Embodiment 1 Herbal Plant Composition Group: 10 mice, administered 10.53 g/kg Embodiment 1 herbal plant composition by gavage.
High-dose Embodiment 1 Herbal Plant Composition Group: 10 mice, administered 21.06 g/kg Embodiment 1 herbal plant composition by gavage.
High-dose Comparative Example 1 Herbal Plant Composition Group: 10 mice, administered 21.06 g/kg Comparative Example 1 herbal plant composition by gavage.
High-dose Comparative Example 2 Herbal Plant Composition Group: 10 mice, administered 21.06 g/kg Comparative Example 2 herbal plant composition by gavage.
High-dose Comparative Example 3 Herbal Plant Composition Group: 10 mice, administered 21.06 g/kg Comparative Example 3 herbal plant composition by gavage.
Western medicine control group: 10 mice, administered 0.03 g/kg 5-fluorouracil by gavage.
After 28 d of continuous administration, the mice in each group were weighed and killed by cervical dissection. […] After washing, the tumors and the organs were dried with filter paper, weighed to obtain mass and recorded, and the tumor inhibition rate and organ index were calculated. […]

With O=c1[nH]cc(F)c(=O)[nH]1 [Western medicine control group, 5-fluorouracil] as the compound, how does the “Cardiac Index” value ([1]; 0.03 g/kg by gavage) read?
The value was 5.13 mg/g.

And the “Liver index” value ([1]; 0.03 g/kg by gavage)?
Its value is 42.78 mg/g.

And the “Lung index” value ([1]; 0.03 g/kg by gavage)?
Its value is 5.96 mg/g.

And the “Renal index” value ([1]; 0.03 g/kg by gavage)?
Its value is 17.69 mg/g.

And the “liver index, renal index, lung index and cardiac index compared to the model group (in words)” value ([1]; Table 3, gavage)?
The value was “no significant change”.

And the “Tumor mass” value (Hep G2 cell line; 0.03 g/kg by gavage, Hep G2 tumor nude mice)?
The value was 0.27 g.

And the “tumor inhibition rates in mice (in words)” value (Hep G2 cell line; Table 2, gavage)?
Its value is “relatively high”.

And the “Inhibition rate (%)” value (Hep G2 cell line; tumor inhibition vs model group, 0.03 g/kg by gavage)?
Its value is 48.07%.
